According to PMC10077203, “Structure modification, antialgal, antiplasmodial, and toxic evaluations of a series of new marine-derived 14-membered resorcylic acid lactone derivatives” (Marine Life Science & Technology, 2021):
pEC50, pIC50: −log10 of the molar value. Like-named read-outs stand apart in the source and are kept apart here.

How the values were obtained:
[1] = tested on: P. tricornutum Bohlin, C. vulgaris, C. socialis, N. laevissima, and N. exigua; test: Diatom growth inhibition assay, whole panel; assay type: cell-based; conditions: Chlorella vulgaris; selective and moderate activities; read-out: EC50 antialgal, range over compounds and algae
Protocol: (§1) The antialgal activity against the microalgae P. tricornutum Bohlin, C. vulgaris, C. socialis, N. laevissima, and N. exigua was evaluated by the method of Ortlepp et al. ([2008]). Briefly, the microalgae were grown in sterilized BG11 medium under light intensity of 2500 lx and 12 h: 12 h light: dark cycle at temperature of 20 ℃. The microalgae were grown to reach the logarithmic phase (approximately 5 × 10^5 cells/ml), which were used for microalgae growth inhibition assay. The compounds 1–71 were first dissolved in a small amount of DMSO and then diluted with 0.22 μm of filtered seawater (FSW) to achieve a range of concentrations from 0.625 to 50 μg/ml. Ten microliters of the compound solution was added to multiwell Petri dishes containing a 1-mL suspension of the microalgae (approximately 12 × 10^4 cells/ml). FSW with DMSO was used as a negative control, and solutions of SeaNine 211 in seawater were used as positive controls. After the plates were incubated for 48 h (16 ± 1 ℃) under continuous light, the FSW with non-attached microalgae was removed. The amount of chlorophyll a in attached microalgae was determined with a spectrophotometer (Beckman, model DU650, USA). Then the EC50 (inhibits 50% of settlement of cyprids in comparison with the control) was calculated using the Probit software program.

[2] = tested on: P. tricornutum Bohlin; test: Diatom growth inhibition assay (antialgal activity); assay type: cell-based, Phaeodactylum tricornutum Bohlin; conditions: 48 h, read-out: EC50 P. tricornutum
Protocol: as §1

[3] = tested on: N. exigua; test: as above; assay type: cell-based, Navicula exigua; conditions: 48 h, read-out: EC50 N. exigua
Protocol: as §1

[4] = tested on: C. vulgaris; test: as above; assay type: cell-based, Chlorella vulgaris; conditions: Chlorella vulgaris, 48 h, read-out: EC50 C. vulgaris
Protocol: as §1

[5] = tested on: N. laevissima; test: as above; assay type: cell-based, Navicula laevissima; conditions: 48 h, read-out: EC50 N. laevissima
Protocol: as §1

[6] = tested on: C. socialis; test: as above; assay type: cell-based, Chaetoceros socialis; conditions: 48 h, read-out: EC50 C. socialis
Protocol: as §1

[7] = tested on: chloroquine sensitive HB3 strain of P. falciparum; test: In vitro antiplasmodial assay (Pico-Green growth inhibition); assay type: cell-based, Plasmodium falciparum; conditions: for pIC50: Plasmodium falciparum, Erythrocyte, HB3 strain in human erythrocytes, read-out: P. falciparum IC50; for antiplasmodial activity against P. falciparum (in words): structure-activity discussion; for P. falciparum SI, Selectivity Index (CC50/IC50): CC50 HUVEC / IC50 P. falciparum
Protocol: In vitro antiplasmodial activity was performed by culturing human erythrocytes and infecting them with P. falciparum, as reported by Trager and Jensen ([1976]). Briefly, the chloroquine sensitive HB3 strain of P. falciparum-infected O + erythrocytes was cultured in RPMI 1640 medium supplemented with 10% human serum (from O + blood) at a hematocrit of 2% erythrocytes at 37 °C with a gas mixture containing 90% N2, 5% CO2, and 5% O2. Parasites were synchronized with 5% D-sorbitol (Lambros and Vanderberg [1979]). P. falciparum growth inhibition bioassays were performed with the procedure as described by Corbett et al. ([2004]), which used Pico-Green, a double stranded-DNA fluorescent dye to test the effect of compounds.

[8] = In vitro cytotoxicity (CC50); assay type: cell-based; conditions: human, HUVEC cells
Source text: Toxicity is a major concern of drug discovery and development, and the selectivity index (SI) is used as the evaluation parameter of drug potential of the test samples by comparing the toxicity on a human cell line (CC50) and the selective inhibitory effect on P. falciparum (IC50) calculated here as CC50/IC50. We decided to evaluate in vitro cytotoxicity of the active derivatives 38, 39, 50, 52, 65, 67, 70, and 71 by determining their 50% cytotoxic concentrations. The results are presented in Table 3, presenting only those CC50 values > 100 μmol/L, reaching selectivity indexes > 10. The cytotoxic concentration at 150 μmol/L was not be determined because of a lack of solubility of the tested molecule in the culture medium. Moreover, the toxicity of these derivatives was also evaluated against two other cell lines: hepatocellular liver carcinoma cell line (Hep G2) and cervical carcinoma (HeLa), finding CC50 values > 100 μmol/L.

[9] = Phaeodactylum tricornutum, chlorophyll a of attached microalgae
[10] = chlorophyll a of attached microalgae
[11] = Sellaphora laevissima, chlorophyll a of attached microalgae
[12] = Chaetoceros socialis, chlorophyll a of attached microalgae

Structure (SMILES): [2H]C([2H])([2H])C1(C([2H])([2H])[2H])OC2C=CCC(C)OC(=O)c3c(cc(OC)cc3OCc3ccccc3Br)C=CCC(O)C2O1 (centres unmarked) [Compound 58]
- pEC50 [1]: 4.49 to 4.96
- pEC50 [2, 9]: 4.55
- pEC50 [3, 10]: 4.70
- pEC50 [4, 10]: 4.80
- pEC50 [5, 11]: < 5.00
- pEC50 [6, 12]: < 5.00

Structure (SMILES): COc1cc(O)c2c(c1)/C=C/C[C@H](O)[C@H](O)[C@@H](O)/C=C/C[C@H](C)OC2=O [Compound 1, zeaenol]
- pEC50 ([2]; Phaeodactylum tricornutum): 4.90
- pEC50 [3]: 4.62
- pEC50 [4]: < 5.00
- pEC50 ([5]; Sellaphora laevissima): 5.06
- pEC50 ([6]; Chaetoceros socialis): 4.59

Structure (SMILES): COc1cc2c(c(OCc3ccccc3Br)c1)C(=O)OC(C)CC=CC(O)C(O)C(O)CC=C2 (centres unmarked) [Compound 9]
- pEC50 [2, 10]: 5.16
- pEC50 [2, 9]: > 5.00
- pEC50 [3, 10]: 4.72
- pEC50 [4, 10]: < 5.00
- pEC50 [5, 10]: 5.18
- pEC50 [5, 11]: > 5.00
- pEC50 [6, 10]: 5.05
- pEC50 [6, 12]: > 5.00

Structure (SMILES): CCC(=O)Oc1cc(OC)cc2c1C(=O)OC(C)CC=CC1OC(C)(C)OC1C(O)CC=C2 (centres unmarked) [Compound 30]
- pIC50 [7]: 4.91
- antiplasmodial activity against P. falciparum (in words) [7]: moderate activity

Structure (SMILES): CCC(=O)Oc1cc(OC)cc2c1C(=O)OC(C)CC=CC(OC(=O)CC)C(OC(=O)CC)C(OC(=O)CC)CC=C2 (centres unmarked) [Compound 69]
- pIC50 [7]: 5.04

Structure (SMILES): COc1cc(OC(=O)C(C)(C)C)c2c(c1Cl)C=CCC(OC(=O)C(C)(C)C)C(O)C(OC(=O)C(C)(C)C)C=CCC(C)OC2=O (centres unmarked) [Compound 71]
- CC50 [8]: > 100 µM
- P. falciparum SI, Selectivity Index (CC50/IC50) [7]: > 28
- pIC50 [7]: 5.45

Structure (SMILES): CCC(=O)Oc1cc(OC)c(Cl)c2c1C(=O)OC(C)CC=CC(OC(=O)CC)C(OC(=O)CC)C(OC(=O)CC)CC=C2 (centres unmarked) [Compound 70]
- CC50 [8]: > 100 µM
- P. falciparum SI, Selectivity Index (CC50/IC50) [7]: > 14
- pIC50 [7]: 5.16

Structure (SMILES): COc1cc(COc2cc(OC)cc3c2C(=O)OC(C)CC=CC(O)C(O)C(O)CC=C3)cc(OC)c1 (centres unmarked) [Compound 12]
- pEC50 [1]: 4.49 to 4.96
- pEC50 [2, 9]: 4.49
- pEC50 [3, 10]: < 5.00
- pEC50 [4, 10]: < 5.00
- pEC50 [5, 11]: 4.70
- pEC50 [6, 12]: < 5.00

Structure (SMILES): COc1cc(COc2cc(OC)c(Cl)c3c2C(=O)OC(C)CC=CC2OC(C)(C)OC2C(O)CC=C3)cc(OC)c1 (centres unmarked) [Compound 50]
- CC50 [8]: > 100 µM
- P. falciparum SI, Selectivity Index (CC50/IC50) [7]: > 12
- pIC50 [7]: 5.11
- antiplasmodial activity against P. falciparum (in words) [7]: active

Structure (SMILES): COc1cc2c(c(OCc3ccc(C(F)(F)F)cc3)c1)C(=O)OC(C)CC=CC1OC(C)(C)OC1C(O)CC=C2 (centres unmarked) [Compound 45]
- pEC50 [1]: 4.49 to 4.96
- pEC50 [2, 9]: < 5.00
- pEC50 [3, 10]: 4.74
- pEC50 [4, 10]: 4.89
- pEC50 [5, 11]: 4.56
- pEC50 [6, 12]: < 5.00

Structure (SMILES): COc1cc2c(c(OCc3ccc(Br)cc3F)c1)C(=O)OC(C)CC=CC(O)C(O)C(O)CC=C2 (centres unmarked) [Compound 24]
- pEC50 [1]: 4.49 to 4.96
- pEC50 [2, 9]: 4.95
- pEC50 [3, 10]: 4.99
- pEC50 [4, 10]: < 5.00
- pEC50 [5, 11]: 4.65
- pEC50 [6, 12]: < 5.00

Structure (SMILES): [2H]C([2H])([2H])C1(C([2H])([2H])[2H])OC2C=CCC(C)OC(=O)c3c(cc(OC)cc3OCc3ccc(-c4ccccc4C#N)cc3)C=CCC(O)C2O1 (centres unmarked) [Compound 65]
- CC50 [8]: > 100 µM
- P. falciparum SI, Selectivity Index (CC50/IC50) [7]: > 12
- pIC50 [7]: 5.11

Structure (SMILES): COc1cc2c(c(OCc3cc(F)cc(F)c3)c1)C(=O)OC(C)CC=CC(O)C(O)C(O)CC=C2 (centres unmarked) [Compound 15]
- pEC50 [1]: 4.49 to 4.96
- pEC50 [2, 9]: 4.48
- pEC50 [3, 10]: 4.73
- pEC50 [4, 10]: < 5.00
- pEC50 [5, 11]: < 5.00
- pEC50 [6, 12]: 4.82
